Patent US11286258B2, “Nature-inspired anticancer and antibacterial motifs and pharmaceutical composition thereof” (University of Sharjah, priority 2020, dated 2022)
≈ marks a conversion by molar mass, not a printed value. Read-outs that look alike come from different tables or passages of the source. Marks after values point to notes of the source that are not given here.

Columns and labels:
[1] = test system: E. coli ATCC25922; test: MIC broth microdilution, E. coli ATCC25922; type: cell-based, Escherichia coli; conditions: not MDR, overnight incubation; for MIC: Escherichia coli, ATCC25922
Protocol: (§1) Antibacterial activity: The compounds were tested for the minimum inhibitory concentrations (MIC), which is the lowest concentration of a chemical required to inhibit visible microbial growth following overnight incubation. MIC values were determined using broth microdilution method according to the Clinical and Laboratory Standards Institute guidelines (CLSI, 2015, M07-A10). Mueller-Hinton broth was used as a culture medium in all the experiments. Exponentially growing bacterial cells were prepared in Mueller-Hinton broth at a concentration of approximately 5×10^5 CFU/mL. Two-fold serial dilutions of the test compound (8 concentrations ranged between 100-0.78 μg/mL) were tested. […] In each experiment, solvent (DMSO) was used as a negative control, un-treated control (composing of bacteria in Mueller-Hinton broth) was used as a growth control, blank (culture media alone) was used as sterility control. The 96-well microplate with the test compounds was incubated overnight at 37° C. Turbidity in wells indicated bacterial growth.
(§2) The compounds were tested on six MDR Gram-positive bacteria including three clinical isolates of methicillin-resistant Staphylococcus aureus (MRSA-1, MRSA-2 and MRSA-3) and three reference MRSA strains (ATCC33591, ATCC33592 and ATCC700699). They were also tested on three MDR Gram-negative bacteria including New Delhi metallo-beta-lactamase (NDM-1) positive, carbapenem-resistant E. coli (ATCC BAA2469), extended-spectrum beta-lactamase (ESBL) producing, colistin-resistant E. coli (CDC-AR-0346) and carbapenem-resistant Acinetobacter baumannii (ATCC BAA1605), in addition to two non-MDR bacteria from the same species, namely E. coli (ATCC 25922) Acinetobacter baumannii (ATCC 19606).

[2] = test system: E. coli ATCC BAA2469 (NDM-1 carbapenem-resistant); test: MIC broth microdilution, E. coli ATCC BAA2469; type: cell-based, Escherichia coli; conditions: overnight incubation; for MIC E. coli ATCC BAA2469 (NDM-1 carbapenem-resistant): MDR; for MIC: Escherichia coli, ATCCBAA2469, MDR
Protocol: as §1, §2

[3] = test system: E. coli CDC-AR-0346 (ESBL, colistin resistant); test: MIC broth microdilution, E. coli CDC-AR-0346; type: cell-based, Escherichia coli; conditions: MDR, overnight incubation; for MIC: Escherichia coli
Protocol: as §1, §2

[4] = test system: Acinetobacter baumannii ATCC 19606; test: MIC broth microdilution, A. baumannii ATCC 19606; type: cell-based; conditions: not MDR, overnight incubation; for MIC: Acinetobacter baumannii, ATCC19606
Protocol: as §1, §2

[5] = test system: Acinetobacter baumannii ATCC BAA1605 (carbapenem-resistant); test: MIC broth microdilution, A. baumannii ATCC BAA1605; type: cell-based; conditions: overnight incubation; for MIC Acinetobacter baumannii ATCC BAA1605 (carbapenem-resistant): MDR; for MIC: Acinetobacter baumannii, ATCCBAA1605, MDR
Protocol: as §1, §2

[6] = test system: HCT-116; test: MTT cell viability, HCT-116; type: cell-based; conditions: Homo sapiens, colon cancer, 48 h of drug treatment, average of three experiments
Description: (§3) Cell culture: In this study five different cancer cell lines were used, human lung carcinoma (A549), human breast adenoma (MCF-7), Cervical carcinoma (Hela), hepatocellular carcinoma (Hep3B), and colorectal adenocarcinoma (HCT-116). These cells were obtained from the European Collection of Cell Cultures (ECACC, UK). Hep3B cells were maintained in Dulbecco's Modified Eagle Medium (DMEM: Sigma-Aldrich), and the four other cell lines were maintained in Roswell Park Memorial Institute medium (RPMI, Sigma-Aldrich, St. Louis, Mo., USA), which was supplemented with 10% fetal bovine serum (FBS, Sigma-Aldrich) and 1% penicillin/streptomycin (Sigma-Aldrich). Cells were incubated all the time at 37° C. in a humidified atmosphere of 5% CO2. Cell viability studies: Cell viability was assessed using the MTT assay as described before. In brief, all cancer cell lines were seeded at a density of 4×10^4/well in 96 well flat-bottom plates. After 24 h from seeding, cells were treated with the synthesized compounds and left for an incubation period of 48 h. Upon reaching the indicated time point, the media was removed and replaced with 200 μL fresh media containing 0.5 mg/mL of MTT tetrazolium dye (Sigma-Aldrich). Cells were then incubated with MTT solution for 2 h at 37° C. The resultant formazan crystals were dissolved in 200 μl/well of DMSO and absorbance was measured at 570 nm using a microplate reader (Thermo Scientific).

[7] = test system: HELA; test: MTT cell viability, HELA; type: cell-based; conditions: Homo sapiens, cervical cancer, 48 h of drug treatment, average of three experiments
Description: as §3

[8] = test system: A549; test: MTT cell viability, A549; type: cell-based; conditions: Homo sapiens, lung cancer, 48 h of drug treatment, average of three experiments
Description: as §3

[9] = test system: HEP3B; test: MTT cell viability, HEP3B; type: cell-based; conditions: Homo sapiens, liver cancer, 48 h of drug treatment, average of three experiments
Description: as §3

[10] = test system: MCF-7; test: MTT cell viability, MCF-7; type: cell-based; conditions: Homo sapiens, MCF7; breast cancer; 48 h of drug treatment; average of three experiments
Description: as §3

[11] = test system: normal epithelial cells (HMEC); test: Cell viability, normal epithelial cells; type: cell-based; conditions: Homo sapiens, 48 h of drug treatment, average of three experiments
Protocol: Cell viability studies: Cell viability was assessed using the MTT assay as described before. In brief, all cancer cell lines were seeded at a density of 4×10^4/well in 96 well flat-bottom plates. After 24 h from seeding, cells were treated with the synthesized compounds and left for an incubation period of 48 h. Upon reaching the indicated time point, the media was removed and replaced with 200 μL fresh media containing 0.5 mg/mL of MTT tetrazolium dye (Sigma-Aldrich). Cells were then incubated with MTT solution for 2 h at 37° C. The resultant formazan crystals were dissolved in 200 μl/well of DMSO and absorbance was measured at 570 nm using a microplate reader (Thermo Scientific).

[12] = test system: MRSA-1 (clinical isolate); test: MIC broth microdilution, MRSA-1; type: cell-based, Staphylococcus aureus; conditions: Staphylococcus aureus, MRSA, read-out: MIC MRSA-1 (clinical isolate)
Protocol: as §1, §2

[13] = test system: MRSA-2 (clinical isolate); test: MIC broth microdilution, MRSA-2; type: cell-based, Staphylococcus aureus; conditions: Staphylococcus aureus, MRSA, read-out: MIC MRSA-2 (clinical isolate)
Protocol: as §1, §2

[14] = test system: MRSA-3 (clinical isolate); test: MIC broth microdilution, MRSA-3; type: cell-based, Staphylococcus aureus; conditions: Staphylococcus aureus, MRSA, read-out: MIC MRSA-3 (clinical isolate)
Protocol: as §1, §2

[15] = test system: MRSA-ATCC33591; test: MIC broth microdilution, MRSA ATCC33591; type: cell-based, Staphylococcus aureus; conditions: Staphylococcus aureus, read-out: MIC MRSA-ATCC33591
Protocol: as §1, §2

[16] = test system: MRSA-ATCC33592; test: MIC broth microdilution, MRSA ATCC33592; type: cell-based, Staphylococcus aureus; conditions: Staphylococcus aureus, read-out: MIC MRSA-ATCC33592
Protocol: as §1, §2

[17] = test system: MRSA-ATCC700699 (VISA); test: MIC broth microdilution, MRSA ATCC700699 (VISA); type: cell-based, Staphylococcus aureus; conditions: for MIC: Staphylococcus aureus, read-out: MIC MRSA-ATCC700699 (VISA)
Protocol: as §1, §2

[18] = overnight incubation, Mueller-Hinton broth
[19] = strain intermediately resistant to vancomycin, overnight incubation

Compound	IC50 [6]	IC50 [7]	IC50 [8]	IC50 [9]	IC50 [10]	MIC [12, 18]	MIC [13, 18]	MIC [14, 18]	MIC [15, 18]	MIC [16, 18]	MIC [17, 19]	also measured
Colistin												MIC E. coli ATCC25922 [1]: 0.2 µg/mL; MIC E. coli ATCC BAA2469 (NDM-1 carbapenem-resistant) [2]: 1.25 µg/mL; MIC E. coli CDC-AR-0346 (ESBL, colistin resistant) [3]: 6.25 µg/mL; MIC Acinetobacter baumannii ATCC 19606 [4]: 1.25 µg/mL; MIC Acinetobacter baumannii ATCC BAA1605 (carbapenem-resistant) [5]: 1.25 µg/mL
Oc1ccc2c(c1)c1c3n2[C@@]2(C=C/C(=N\Nc4ccc(C(F)(F)F)cc4)CC2)CC[C@@H]3NCC1 [Compound 1i]	5.177 ± 0.02 µM	4.08 ± 0.12 µM	8.607 ± 0.02 µM	5.132 ± 0.04 µM	5.61 ± 0.08 µM	1.56 µg/mL (≈ 3.34 µM)	3.12 µg/mL (≈ 6.7 µM)	3.12 µg/mL (≈ 6.7 µM)	3.12 µg/mL (≈ 6.7 µM)	3.12 µg/mL (≈ 6.7 µM)	1.56 µg/mL (≈ 3.34 µM)	IC50 [11]: 12.7 ± 0.05 µM; MIC [1]: 12.5 µg/mL (≈ 26.8 µM); MIC [2]: 6.25 to 12.5 µg/mL (≈ 13.4 to 26.8 µM); MIC E. coli ATCC BAA2469 (NDM-1 carbapenem-resistant) [2]: 12.5 µg/mL (≈ 26.8 µM); MIC [3]: 25 µg/mL (≈ 53.6 µM); MIC [4]: 6.25 µg/mL (≈ 13.4 µM); MIC [5]: 12.5 µg/mL (≈ 26.8 µM)
Brc1ccc(N/N=C2\C=C[C@@]3(CC2)CC[C@@H]2NCCc4c2n3c2ccccc42)cc1 [Compound 1c]	2.65 ± 0.05 µM	5.3 ± 0.35 µM	3.9 ± 0.04 µM	4.21 ± 0.06 µM	2.75 ± 0.06 µM	3.12 µg/mL (≈ 6.77 µM)	3.12 µg/mL (≈ 6.77 µM)	3.12 µg/mL (≈ 6.77 µM)	6.25 µg/mL (≈ 13.5 µM)	6.25 µg/mL (≈ 13.5 µM)	6.25 µg/mL (≈ 13.5 µM)	
CO/N=C(\C(=O)N[C@@H]1C(=O)N2C(C(=O)O)=C(CSc3nc(=O)c(=O)[nH]n3C)CS[C@H]12)c1csc(N)n1 [Ceftriaxone]												MIC [1]: 0.03 µg/mL (≈ 0.0541 µM); MIC [2]: 500 µg/mL (≈ 902 µM); MIC [3]: > 1000 µg/mL; MIC [4]: 20 µg/mL (≈ 36.1 µM); MIC [5]: ≥ 1000 µg/mL; MIC Acinetobacter baumannii ATCC BAA1605 (carbapenem-resistant) [5]: >1000 µg/mL
Fc1ccc(N/N=C2\C=C[C@@]3(CC2)CC[C@@H]2NCCc4c2n3c2ccccc42)cc1 [Compound 1b]	6.43 ± 0.03 µM	> 10 µM	10.25 ± 0.08 µM	8 ± 0.07 µM	6.22 ± 0.16 µM							
CN[C@H](CC(C)C)C(=O)N[C@H]1C(=O)N[C@@H](CC(N)=O)C(=O)N[C@H]2C(=O)N[C@H]3C(=O)N[C@H](C(=O)N[C@H](C(=O)O)c4cc(O)cc(O)c4-c4cc3ccc4O)[C@H](O)c3ccc(c(Cl)c3)Oc3cc2cc(c3O[C@@H]2O[C@H](CO)[C@@H](O)[C@H](O)[C@H]2O[C@H]2C[C@](C)(N)[C@H](O)[C@H](C)O2)Oc2ccc(cc2Cl)[C@H]1O [Vancomycin, reference compound]												MIC [12]: 1 µg/mL (≈ 0.69 µM); MIC [13]: 1 µg/mL (≈ 0.69 µM); MIC [14]: 1 µg/mL (≈ 0.69 µM); MIC [15]: 1 µg/mL (≈ 0.69 µM); MIC [16]: 1 µg/mL (≈ 0.69 µM); MIC [17]: 8 µg/mL (≈ 5.52 µM); MIC MRSA-ATCC700699 (VISA) [17, 19]: 8 * μg/mL
COC(=O)[C@H]1Cc2c3n(c4ccccc24)[C@@]2(C=C/C(=N\Nc4ccc(C(F)(F)F)cc4)CC2)CC[C@@H]3N1 [Compound 1n]						3.12 µg/mL (≈ 6.14 µM)	3.12 µg/mL (≈ 6.14 µM)	3.12 µg/mL (≈ 6.14 µM)	6.25 µg/mL (≈ 12.3 µM)	6.25 µg/mL (≈ 12.3 µM)	6.25 µg/mL (≈ 12.3 µM)	
